Read-outs that look alike come from different tables or passages of the source.
Columns and labels:
off-target kinases [1] = target: T1, off-target kinases (Homo sapiens, UniProt Q9UF33); experiment: SelectScreen Kinase Profiling, single point inhibition and IC50 for off-target kinases; format: biochemical; conditions: EPHA6, LanthaScreen Binding
T1 sequence (Q9UF33 23-1036): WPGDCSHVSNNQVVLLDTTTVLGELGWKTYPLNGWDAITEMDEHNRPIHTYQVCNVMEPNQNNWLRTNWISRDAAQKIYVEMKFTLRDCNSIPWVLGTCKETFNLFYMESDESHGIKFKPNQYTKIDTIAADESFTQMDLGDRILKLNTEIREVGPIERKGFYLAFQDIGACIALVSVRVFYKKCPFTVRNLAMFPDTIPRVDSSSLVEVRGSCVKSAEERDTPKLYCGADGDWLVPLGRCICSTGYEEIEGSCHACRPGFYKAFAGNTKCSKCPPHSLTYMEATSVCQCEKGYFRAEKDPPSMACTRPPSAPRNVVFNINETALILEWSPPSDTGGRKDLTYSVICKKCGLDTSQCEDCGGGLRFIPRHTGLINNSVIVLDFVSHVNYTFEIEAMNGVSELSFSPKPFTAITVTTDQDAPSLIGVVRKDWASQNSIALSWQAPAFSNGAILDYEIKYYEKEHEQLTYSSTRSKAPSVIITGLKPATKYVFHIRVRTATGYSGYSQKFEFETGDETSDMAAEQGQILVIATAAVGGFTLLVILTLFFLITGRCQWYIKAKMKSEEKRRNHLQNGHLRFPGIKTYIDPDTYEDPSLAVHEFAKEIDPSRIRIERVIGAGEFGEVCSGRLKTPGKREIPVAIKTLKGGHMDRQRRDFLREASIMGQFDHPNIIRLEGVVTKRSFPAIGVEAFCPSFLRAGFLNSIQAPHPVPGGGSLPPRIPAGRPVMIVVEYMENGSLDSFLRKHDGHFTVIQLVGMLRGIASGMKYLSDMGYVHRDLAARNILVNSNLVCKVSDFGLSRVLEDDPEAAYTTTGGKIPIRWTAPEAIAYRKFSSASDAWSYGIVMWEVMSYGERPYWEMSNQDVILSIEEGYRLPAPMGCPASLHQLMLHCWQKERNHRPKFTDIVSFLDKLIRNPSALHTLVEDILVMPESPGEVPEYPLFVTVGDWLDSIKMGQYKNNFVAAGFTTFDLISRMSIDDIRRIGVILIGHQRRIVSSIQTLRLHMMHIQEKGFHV

off-target kinases [2] = target: off-target kinases (Homo sapiens, UniProt P00519, Y253F); experiment: as above; format: biochemical; conditions: ABL1 Y253F, ATP Km app, ZLYTE

Question: How did the inhibition (off-target kinases [1]; read-out: % Inhibition 1) turn out when N#Cc1cc(-c2ncnc(Nc3ccc(N4CCN(C5COC5)CC4)cc3)n2)ccc1OC1CCOCC1 [Compound 1, 5-(4-((4-(4-(oxetan-3-yl)piperazin-1-yl)phenyl)amino)-1,3,5-triazin-2-yl)-2-((tetrahydro-2H-pyran-4-yl)oxy)benzonitrile] was run?
Answer: 9%

Question: And the inhibition (off-target kinases [1]; read-out: % Inhibition 2)?
Answer: 20%

Question: And the inhibition (off-target kinases [1]; read-out: % Inhibition Avg)?
Answer: 14%

Question: And the inhibition (off-target kinases [2]; read-out: % Inhibition 1)?
Answer: 61%

Question: What about the inhibition (off-target kinases [2]; read-out: % Inhibition 2) of the same compound?
Answer: 48%

Question: And the inhibition (off-target kinases [2]; read-out: % Inhibition Avg)?
Answer: 54%

Reference: patent US11572590B2, “Methods for evaluating tumor cell spheroids using 3D microfluidic cell culture device” (Dana-Farber Cancer Institute, Inc., priority 2017, dated 2023)
